Measurements from patent US12398119B2, “Piperazine azaspiro derivatives” (PFIZER INC., priority 2018, dated 2025).
Where two headings read alike, the source gives them in different places.

Molecular target: T1, Human M4 mAChR (Homo sapiens, UniProt P08173)
T1 construct: host or cells: HEK293 (Sor-L9 HEK293 human/M4/GloSensor Cell Clone Number 40)
T1 sequence (P08173 1-479): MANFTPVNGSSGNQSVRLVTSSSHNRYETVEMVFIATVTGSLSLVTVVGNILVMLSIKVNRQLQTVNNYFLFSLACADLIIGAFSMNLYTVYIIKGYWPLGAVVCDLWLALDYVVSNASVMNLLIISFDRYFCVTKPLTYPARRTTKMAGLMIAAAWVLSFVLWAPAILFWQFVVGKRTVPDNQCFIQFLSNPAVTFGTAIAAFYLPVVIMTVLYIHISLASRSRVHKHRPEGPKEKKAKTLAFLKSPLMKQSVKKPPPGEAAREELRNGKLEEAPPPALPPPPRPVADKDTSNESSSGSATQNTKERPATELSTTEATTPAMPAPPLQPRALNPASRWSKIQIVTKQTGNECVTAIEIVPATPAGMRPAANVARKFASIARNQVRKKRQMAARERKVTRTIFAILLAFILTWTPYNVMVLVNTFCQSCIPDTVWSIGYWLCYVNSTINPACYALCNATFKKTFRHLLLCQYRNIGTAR
Assay: Muscarinic hM4 Agonist GloSensor cAMP Assay
Format: cell-based
Protocol: Muscarinic hM4 Agonist GloSensor cAMP Assay Methods
Compounds were prepared in advance of the assay. Test compounds were solubilized in 100% dimethyl sulfoxide (DMSO, Sigma D8418) to a concentration of 30 mM. A 10-point intermediate dilution series using half log dilutions was created in 100% DMSO with a top concentration of 4 mM. The serially diluted compounds were spotted as 200 nL/well in a 384-well plate (Matrix Catalog Number 4325). The final compound concentration range in the assay was […] to 0.3 nM with a final DMSO concentration of 0.25%.
Human M4 mAChR expressing stable cell lines were generated using a parental HEK cell expressing the GloSensor construct (Promega Sor-L9 HEK293 human/M4/GloSensor Cell Clone Number 40). The cells were grown in 90% Dulbecco's Modified Eagle Medium (DMEM, Gibco 11960), 10% fetal bovine serum (FBS, Hyclone CH.30160-03), 1% Penicillin/Streptomycin (Gibco 15070-063), 500 µg/mL Geneticin (Gibco 10131-027), 200 µg/mL Hygromycin B (Invitrogen 10687-010) and 1% Glutamax (Thermo Fisher 35050061).
One day prior to assay, the cells were lifted using dissociation buffer (Gibco 13151-014) and spun in a centrifuge at 250 times gravity for 5 minutes at room temperature. Supernatant was removed and the cell pellet was resuspended in growth media to a concentration of […]. Cells were then added to white poly-d-lysine coated plates (Becton Dickinson 356661) as 40 μL per well (25,000 cells) and incubated overnight (20-24 hours) in a 37° C. humidified incubator with 5% carbon dioxide (C02).
The following day, culture media was removed from the cell plates and replaced with […] equilibration medium containing 88% CO2-independent medium (Invitrogen 18045088), 10% FBS and 2% GloSensor cAMP reagent (Promega E1291) that had been warmed to 37° C. Plates were then covered and incubated for 2 hours at room temperature while protected from light.
To the previously prepared serially diluted compound plates, 200 nL of 4 mM ACh (Sigma A2661, 10 μM final) or 200 nL of 100% DMSO (0.25% final) was added to the positive and negative control wells, respectively. Compound plates were then diluted by adding 16 μL of C02-independent media containing 10% FBS and an EC80 concentration of isoproterenol (Sigma 16504). Prior to compound testing, concentration response curves were run for isoproterenol to determine the EC80 concentration. At the end of the 2 hour equilibration, 10 µL was transferred from the compound plates to the cell plates. The cell plates were incubated an additional 7 minutes at room temperature and then read using a Multi-label EnVision plate reader (Perkin Elmer) for luminescence.
The raw data, expressed as relative light units, was analyzed using Activity Base (IDBS). The percent effect at each compound concentration was calculated based on and relative to the amount of cAMP produced by the positive and negative control wells contained on each assay plate. The positive control wells contained an EC100 concentration of ACh and the negative control wells contained only DMSO. The concentration and % effect values were fit using a four-parameter logistic dose response equation, and the concentration required for 50% effect (EC50) was determined as well as the maximum asymptote of the concentration response curve to define the efficacy.

[1] = Emax: maximum asymptote of concentration response curve, relative to ACh positive control (EC100) and DMSO, geometric mean, read-out: % maximum effect
[2] = HEK293 human/M4/GloSensor cells, EC80 isoproterenol, geometric mean, number of determinations in parentheses, read-out: EC50
[3] = enantiomers reported in footnotes to Table 1, number of determinations in parentheses, read-out: M4 EC50
[4] = enantiomers reported in footnotes to Table 1, number of determinations in parentheses, read-out: M4 Emax

SMILES	Emax [1]	EC50 [2]	EC50 [3]	Emax [4]
CCOC(=O)N1CC2(CCC(N3CCN(c4ncccc4-c4cccnn4)CC3)C2)C1 (stereo not shown) [Example 45, ethyl 6-{4-[3-(pyridazin-3-yl)pyridin-2-yl]piperazin-1-yl}-2-azaspiro[3.4]octane-2-carboxylate]	35.2%	8.2 nM		
CCOC(=O)N1CC2(CCC(N3CCN(c4ncccc4-c4cnc(OC)cn4)CC3)C2)C1 (single isomer, unassigned) [Example 2, ethyl 6-{4-[3-(5-methoxypyrazin-2-yl)pyridin-2-yl]piperazin-1-yl}-2-azaspiro[3.4]octane-2-carboxylate]		> 10000 nM		
CCOC(=O)N1CC2(CC(N3CCN(c4ncccc4-c4cnccn4)CC3)C2)C1 [Example 35, ethyl 6-{4-[3-(pyrazin-2-yl)pyridin-2-yl]piperazin-1-yl}-2-azaspiro[3.3]heptane-2-carboxylate]	94.2%	304 nM		
CCOC(=O)N1CC2(CCC(N3CCN(c4ncccc4-c4cnc(C#N)cn4)CC3)C2)C1 (single isomer, unassigned) [Example 41, ethyl 6-{4-[3-(5-cyanopyrazin-2-yl)pyridin-2-yl]piperazin-1-yl}-2-azaspiro[3.4]octane-2-carboxylate]	82.4%	8.52 nM		
CCOC(=O)N1CC2(CCC(N3CCN(c4ncccc4-c4ccc5nncn5c4)CC3)C2)C1 (stereo not shown) [Example 40, ethyl 6-{4-[3-([1,2,4]triazolo[4,3-a]pyridin-6-yl)pyridin-2-yl]piperazin-1-yl}-2-azaspiro[3.4]octane-2-carboxylate]	81.6%	12 nM		
CCOC(=O)N1CC2(CCC(N3CCN(c4cccnc4OCC(F)(F)F)CC3)C2)C1 (stereo not shown) [Example 10, ethyl 6-{4-[2-(2,2,2-trifluoroethoxy)pyridin-3-yl]piperazin-1-yl}-2-azaspiro[3.4]octane-2-carboxylate]	91.5%	5.13 nM		
CCOC(=O)N1CC2(CCC(N3CCN(c4cccnc4OC(F)(F)F)CC3)C2)C1 (single isomer, unassigned) [Example 20, ethyl 6-{4-[2-(trifluoromethoxy)pyridin-3-yl]piperazin-1-yl}-2-azaspiro[3.4]octane-2-carboxylate]	75.3%	9.9 nM		
CCOC(=O)N1CC2(CCC(N3CCN(c4ncccc4-c4ccc(NC(C)=O)cc4)CC3)C2)C1 (stereo not shown) [Example 52, ethyl 6-(4-(3-(4-acetamidophenyl)pyridin-2-yl)piperazin-1-yl)-2-azaspiro[3.4]octane-2-carboxylate]	92%	0.568 nM		
CCOC(=O)N1CC2(CCC(N3CCN(c4ncccc4-c4cnc(OC)cn4)CC3)C2)C1 (stereo not shown) [Example 1, ethyl 6-{4-[3-(5-methoxypyrazin-2-yl)pyridin-2-yl]piperazin-1-yl}-2-azaspiro[3.4]octane-2-carboxylate]	82.7%	4.59 nM		
CCOC(=O)N1CC2(CC[C@@H](N3CCN(c4nccnc4-c4cncs4)CC3)C2)C1 [Example 11, ethyl (6R)-6-{4-[3-(1,3-thiazol-5-yl)pyrazin-2-yl]piperazin-1-yl}-2-azaspiro[3.4]octane-2-carboxylate]	66.4%	0.806 nM		
CCOC(=O)N1CC2(CCC(N3CCN(c4ncccc4-c4ccc(C#N)cc4)CC3)C2)C1 (stereo not shown) [Example 53, ethyl 6-(4-(3-(4-cyanophenyl)pyridin-2-yl)piperazin-1-yl)-2-azaspiro[3.4]octane-2-carboxylate]	97%	1.75 nM		
CCOC(=O)N1CC2(CC[C@@H](N3CCN(c4ncccc4-c4cnc(C)nc4)CC3)C2)C1 [Example 47, ethyl (6R)-6-{4-[3-(2-methylpyrimidin-5-yl)pyridin-2-yl]piperazin-1-yl}-2-azaspiro[3.4]octane-2-carboxylate]	63.5%	2.78 nM		
CCOC(=O)N1CC2(CCC(N3CCN(c4nccnc4OC)CC3)C2)C1 (single isomer, unassigned) [Example 27, ethyl 6-[4-(3-methoxypyrazin-2-yl)piperazin-1-yl]-2-azaspiro[3.4]octane-2-carboxylate]	25.1%	11.4 nM		
CCOC(=O)N1CC2(CCC(N3CCN(c4cccnc4OC(F)F)CC3)C2)C1 (single isomer, unassigned) [Example 19, ethyl 6-{4-[2-(difluoromethoxy)pyridin-3-yl]piperazin-1-yl}-2-azaspiro[3.4]octane-2-carboxylate]	78.4%	1.45 nM		
CCOC(=O)N1CC2(CC[C@@H](N3CCN(c4ncccc4OC)CC3)C2)C1 [Example 6, ethyl (6R)-6-[4-(3-methoxypyridin-2-yl)piperazin-1-yl]-2-azaspiro[3.4]octane-2-carboxylate]	86.3%	1.57 nM		
CCOC(=O)N1CC2(CCC(N3CCN(c4ncccc4-c4cnsn4)CC3)C2)C1 (single isomer, unassigned) [enantiomer of Example 34, ethyl 6-{4-[3-(1,2,5-thiadiazol-3-yl)pyridin-2-yl]piperazin-1-yl}-2-azaspiro[3.4]octane-2-carboxylate]			347 nM	72.3%
CCOC(=O)N1CC2(CC[C@@H](N3CCN(c4ncccc4-c4nncs4)CC3)C2)C1 [Example 5, ethyl (6R)-6-{4-[3-(1,3,4-thiadiazol-2-yl)pyridin-2-yl]piperazin-1-yl}-2-azaspiro[3.4]octane-2-carboxylate]	46.4%	1.6 nM		
CCOC(=O)N1CC2(CCC(N3CCN(c4ncc(F)cc4-c4cscn4)CC3)C2)C1 (single isomer, unassigned) [enantiomer of Example 26, ethyl 6-{4-[5-fluoro-3-(1,3-thiazol-4-yl)pyridin-2-yl]piperazin-1-yl}-2-azaspiro[3.4]octane-2-carboxylate]			152 nM	67.1%
CCOC(=O)N1CC2(CCC(N3CCN(c4ncccc4-c4cnsn4)CC3)C2)C1 (single isomer, unassigned) [Example 34, ethyl 6-{4-[3-(1,2,5-thiadiazol-3-yl)pyridin-2-yl]piperazin-1-yl}-2-azaspiro[3.4]octane-2-carboxylate]	96.2%	1.28 nM		
CCOC(=O)N1CC2(CCC(N3CCN(c4ncccc4-c4nccnc4C)CC3)C2)C1 (stereo not shown) [Example 15, ethyl 6-{4-[3-(3-methylpyrazin-2-yl)pyridin-2-yl]piperazin-1-yl}-2-azaspiro[3.4]octane-2-carboxylate]	58.5%	17.3 nM		
CCOC(=O)N1CC2(CC[C@@H](N3CCN(c4nccnc4N4CCOCC4)CC3)C2)C1 [Example 42, ethyl (6R)-6-{4-[3-(morpholin-4-yl)pyrazin-2-yl]piperazin-1-yl}-2-azaspiro[3.4]octane-2-carboxylate]	92.9%	12.3 nM		
CCOC(=O)N1CC2(CC[C@@H](N3CCN(c4ncccc4-n4cc(C)cn4)CC3)C2)C1 [Example 9, ethyl (6R)-6-{4-[3-(4-methyl-1H-pyrazol-1-yl)pyridin-2-yl]piperazin-1-yl}-2-azaspiro[3.4]octane-2-carboxylate]	68.2%	14.8 nM		
